SMILES strings stand for the structures.

Assay [1] concerns the target T1, Retinoic acid receptor RXR-gamma (Homo sapiens, UniProt P48443).
T1 sequence (P48443 whole entry): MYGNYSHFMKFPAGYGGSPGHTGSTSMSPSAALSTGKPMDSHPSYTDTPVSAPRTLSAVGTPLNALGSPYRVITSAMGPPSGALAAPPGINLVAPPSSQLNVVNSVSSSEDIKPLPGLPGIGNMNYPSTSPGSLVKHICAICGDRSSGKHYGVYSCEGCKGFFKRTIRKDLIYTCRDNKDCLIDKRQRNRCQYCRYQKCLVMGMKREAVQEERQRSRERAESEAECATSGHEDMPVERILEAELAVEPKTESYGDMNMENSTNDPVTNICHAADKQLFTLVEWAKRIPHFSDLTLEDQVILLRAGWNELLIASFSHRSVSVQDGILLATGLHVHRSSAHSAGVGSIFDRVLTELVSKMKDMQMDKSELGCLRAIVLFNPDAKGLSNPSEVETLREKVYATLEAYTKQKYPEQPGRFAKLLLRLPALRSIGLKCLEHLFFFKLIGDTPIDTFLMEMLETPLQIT
The assay can be described thus: Transcriptional activity was evaluated in CV-1 cells transfected with expression vector for Retinoic acid receptor RXR-gamma.

The target in assay [2] is T2, Retinoic acid receptor RXR-beta (Homo sapiens, UniProt P28702).
T2 sequence (P28702 whole entry): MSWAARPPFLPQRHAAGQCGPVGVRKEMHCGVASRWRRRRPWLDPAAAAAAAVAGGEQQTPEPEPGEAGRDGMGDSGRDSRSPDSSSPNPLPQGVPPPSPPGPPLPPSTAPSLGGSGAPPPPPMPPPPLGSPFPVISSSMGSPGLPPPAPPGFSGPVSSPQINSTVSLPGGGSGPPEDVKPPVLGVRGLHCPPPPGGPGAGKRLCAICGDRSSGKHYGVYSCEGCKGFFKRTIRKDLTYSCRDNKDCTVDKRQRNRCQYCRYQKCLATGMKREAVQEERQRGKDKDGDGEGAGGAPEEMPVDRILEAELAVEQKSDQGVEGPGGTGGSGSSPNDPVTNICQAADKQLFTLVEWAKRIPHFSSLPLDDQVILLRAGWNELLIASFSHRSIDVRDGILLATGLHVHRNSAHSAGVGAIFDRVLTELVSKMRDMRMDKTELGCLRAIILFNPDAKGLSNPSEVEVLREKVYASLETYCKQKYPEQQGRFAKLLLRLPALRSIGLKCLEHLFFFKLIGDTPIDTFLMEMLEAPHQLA
As to the kind of experiment: Binding affinity towards recombinantly expressed Retinoic acid receptor RXR-beta in baculoviral system, by using 5 nM [3H]targretin in a competitive binding assay.

Assay [3] addresses T2, Retinoic acid receptor RXR-beta. As to the kind of experiment: Transcriptional activity was evaluated in CV-1 cells transfected with expression vector for Retinoic acid receptor RXR-beta.
The target of assay [4] is T3, Retinoic acid receptor RXR-alpha (Homo sapiens, UniProt P19793).
T3 sequence (P19793 whole entry): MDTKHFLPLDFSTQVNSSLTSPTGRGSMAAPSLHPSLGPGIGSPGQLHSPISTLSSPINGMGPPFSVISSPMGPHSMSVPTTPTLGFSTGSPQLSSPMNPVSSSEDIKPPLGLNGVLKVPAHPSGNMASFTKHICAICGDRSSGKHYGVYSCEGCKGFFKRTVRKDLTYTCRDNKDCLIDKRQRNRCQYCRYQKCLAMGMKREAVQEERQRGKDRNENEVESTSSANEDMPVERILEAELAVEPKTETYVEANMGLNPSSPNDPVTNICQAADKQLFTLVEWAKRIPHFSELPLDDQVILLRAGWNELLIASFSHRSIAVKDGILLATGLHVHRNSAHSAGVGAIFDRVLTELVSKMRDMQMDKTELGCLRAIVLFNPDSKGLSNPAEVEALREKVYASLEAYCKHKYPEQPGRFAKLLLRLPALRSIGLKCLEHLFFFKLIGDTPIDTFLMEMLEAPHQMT
As to the kind of experiment: Transcriptional activity was evaluated in CV-1 cells transfected with expression vector for Retinoic acid receptor RXR-alpha.

With `CCO/N=C(/c1ccc(C(=O)O)cc1)c1cc2c(cc1C)C(C)(C)CCC2(C)C`, the figures for the EC50 in assay [1], in assay [3] and in assay [4] were 34 nM, 165 nM and 46 nM, respectively. In addition, in assay [2], the Ki was 120 nM.

What is called EC50 is the concentration needed to bring the measured effect to its halfway point. Low readings indicate greater potency, high ones weaker potency. Broadly, the Ki is the equilibrium dissociation constant of an inhibitor or competing ligand from its target.

The record behind these values is BindingDB's records for doi:10.1021/jm980621r (Ligand Pharmaceuticals, 1999).
